Test results as given in US8802597B2, “Herbicidal pyrimidines” (E I du Pont de Nemours and Company, priority 2003, dated 2014).

Assays:
Type in all cases: in vivo
[1] = tested on: umbrella sedge (Cyperus difformis); experiment: Test B flooded paddy test; conditions: Flood, scale 0 to 100
Procedure: (§1) At the same time, plants selected from these crop and weed species and also blackgrass (Alopecurus myosuroides) and wild oat (Avena fatua) were treated with postemergence applications of test chemicals formulated in the same manner. Plants ranged in height from 2 to 18 cm (1- to 4-leaf stage) for postemergence treatments. Plant species in the flooded paddy test consisted of rice (Oryza sativa), umbrella sedge (Cyperus difformis), duck salad (Heteranthera limosa) and barnyardgrass (Echinochloa crus-galli) grown to the 2-leaf stage for testing. Treated plants and controls were maintained in a greenhouse for 13 to 15 days, after which time all species were compared to controls and visually evaluated. Plant response ratings, summarized in Table B, are based on a scale of 0 to 100 where 0 is no effect and 100 is complete control. A dash (-) response means no test result.

[2] = tested on: rice (Oryza sativa); experiment: Test B flooded paddy test; conditions: Flood, scale 0 to 100
Procedure: as §1

[3] = tested on: duck salad (Heteranthera limosa); experiment: Test B flooded paddy test; conditions: Flood, scale 0 to 100
Procedure: as §1

[4] = tested on: barnyardgrass (Echinochloa crus-galli); experiment: Test B flooded paddy test; conditions: Flood, scale 0 to 100
Procedure: as §1

[5] = tested on: giant foxtail (Setaria faberi); experiment: Test A pre/postemergence
In short: (§2)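 Compared with untreated controls, treated plants were visually rated for injury on a 0 (none) to 100 (complete control) scale about ten days after spraying. Pre- and postemergence applications used one solvent/surfactant formulation; postemergence plants measured 2–10 cm.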

[6] = tested on: crabgrass (Digitaria sanguinalis); experiment: Test A pre/postemergence
In short: as §2

[7] = tested on: morningglory (Ipomoea spp.); experiment: Test A pre/postemergence
In short: as §2

[8] = tested on: redroot pigweed (Amaranthus retroflexus); experiment: Test A pre/postemergence
In short: as §2

[9] = tested on: velvetleaf (Abutilon theophrasti); experiment: Test A pre/postemergence
In short: as §2

[10] = tested on: barnyardgrass (Echinochloa crus-galli); experiment: Test A pre/postemergence
In short: as §2

[11] = tested on: purple redstem (Ammannia coccinea); experiment: Test E flooded paddy water application; conditions: Flood, 21 days, scale 0 to 100 (0 no effect, 100 complete control)
In short: (§3)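 Response scored visually on a 0–100 scale (100 = complete control) at 21 days against untreated pots. Treatment was into paddy water 3 cm deep over silt loam, with plants at the 2.0–2.5-leaf stage, grown under 16-h light at 29.5/26.7 °C day/night.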

[12] = tested on: smallflower umbrella sedge (Cyperus difformis); experiment: Test E flooded paddy water application; conditions: Flood, 21 days, scale 0 to 100 (0 no effect, 100 complete control)
In short: as §3

[13] = tested on: rice flatsedge (Cyperus iria); experiment: Test E flooded paddy water application; conditions: Flood, 21 days, scale 0 to 100 (0 no effect, 100 complete control)
In short: as §3

[14] = tested on: water seeded rice seedlings (Oryza sativa cv. ‘Japonica-M202’); experiment: Test E flooded paddy water application; conditions: Flood, 21 days, scale 0 to 100 (0 no effect, 100 complete control)
In short: as §3

[15] = tested on: transplanted rice seedlings (Oryza sativa cv. ‘Japonica-M202’); experiment: Test E flooded paddy water application; conditions: Flood, 21 days, scale 0 to 100 (0 no effect, 100 complete control)
In short: as §3

[16] = tested on: junglerice (Echinochloa colona); experiment: Test E flooded paddy water application; conditions: Flood, 21 days, scale 0 to 100 (0 no effect, 100 complete control)
In short: as §3

[17] = tested on: ducksalad (Heteranthera limosa); experiment: Test E flooded paddy water application; conditions: Flood, 21 days, scale 0 to 100 (0 no effect, 100 complete control)
In short: as §3

[18] = tested on: late watergrass (Echinochloa oryzicola); experiment: Test E flooded paddy water application; conditions: Flood, 21 days, scale 0 to 100 (0 no effect, 100 complete control)
In short: as §3

[19] = tested on: early watergrass (Echinochloa oryzoides); experiment: Test E flooded paddy water application; conditions: Flood, 21 days, scale 0 to 100 (0 no effect, 100 complete control)
In short: as §3

[20] = tested on: bearded (brdd.) sprangletop (Leptochloa fusca ssp. fascicularis); experiment: Test E flooded paddy water application; conditions: Flood, 21 days, scale 0 to 100 (0 no effect, 100 complete control)
In short: as §3

[21] = tested on: barnyardgrass (Echinochloa crus-galli); experiment: Test E flooded paddy water application; conditions: Flood, 21 days, scale 0 to 100 (0 no effect, 100 complete control)
In short: as §3

[22] = Postemergence, 125 g ai/ha, 0 to 100 scale (0 no effect, 100 complete control)
[23] = Postemergence, 500 g ai/ha, 0 to 100 scale (0 no effect, 100 complete control)
[24] = Preemergence, 125 g ai/ha, 0 to 100 scale where 0 is no effect and 100 is complete control, approximately ten days
[25] = Preemergence, 500 g ai/ha, 0 to 100 scale where 0 is no effect and 100 is complete control, approximately ten days

CCOC(=O)c1nc(-c2ccc(C(F)(F)F)cc2)nc(N)c1Br [Compound 60]
Plant response rating, Sedge, Umbrella ([1]; 125 g ai/ha): 0
Plant response rating, Sedge, Umbrella ([1]; 500 g ai/ha): 30
Plant response rating, Rice ([2]; 125 g ai/ha): 0
Plant response rating, Rice ([2]; 500 g ai/ha): 0
Plant response rating, Ducksalad ([3]; 125 g ai/ha): 80
Plant response rating, Ducksalad ([3]; 500 g ai/ha): 90
Plant response rating, Barnyardgrass ([4]; 125 g ai/ha): 0
Plant response rating, Barnyardgrass ([4]; 500 g ai/ha): 20
Plant response rating, Foxtail, Giant [5, 22]: 0
Plant response rating, Foxtail, Giant [5, 23]: 0
Plant response rating, Foxtail, Giant [5, 24]: 0
Plant response rating, Foxtail, Giant [5, 25]: 0
Plant response rating, Crabgrass [6, 22]: 0
Plant response rating, Crabgrass [6, 23]: 0
Plant response rating, Crabgrass [6, 24]: 0
Plant response rating, Crabgrass [6, 25]: 0
Plant response rating, Morningglory [7, 22]: 0
Plant response rating, Morningglory [7, 23]: 20
Plant response rating, Morningglory [7, 24]: 0
Plant response rating, Morningglory [7, 25]: 0
Plant response rating, Pigweed [8, 22]: 10
Plant response rating, Pigweed [8, 23]: 40
Plant response rating, Pigweed [8, 24]: 0
Plant response rating, Pigweed [8, 25]: 0
Plant response rating, Velvetleaf [9, 22]: 30
Plant response rating, Velvetleaf [9, 23]: 40
Plant response rating, Velvetleaf [9, 24]: 0
Plant response rating, Velvetleaf [9, 25]: 0
Plant response rating, Barnyardgrass [10, 22]: 0
Plant response rating, Barnyardgrass [10, 23]: 0
Plant response rating, Barnyardgrass [10, 24]: 0
Plant response rating, Barnyardgrass [10, 25]: 0

Nc1nc(C2CC2)nc(C(=O)OCc2ccc(Cl)cc2)c1Cl [Compound 80]
Plant response rating, Sedge, Umbrella ([1]; 125 g ai/ha): 20
Plant response rating, Sedge, Umbrella ([1]; 500 g ai/ha): 70
Plant response rating, Rice ([2]; 125 g ai/ha): 0
Plant response rating, Rice ([2]; 500 g ai/ha): 50
Plant response rating, Ducksalad ([3]; 125 g ai/ha): 50
Plant response rating, Ducksalad ([3]; 500 g ai/ha): 70
Plant response rating, Barnyardgrass ([4]; 125 g ai/ha): 0
Plant response rating, Barnyardgrass ([4]; 500 g ai/ha): 50
Plant response rating, Foxtail, Giant [5, 22]: 70
Plant response rating, Foxtail, Giant [5, 23]: 90
Plant response rating, Foxtail, Giant [5, 24]: 15
Plant response rating, Foxtail, Giant [5, 25]: 70
Plant response rating, Crabgrass [6, 22]: 30
Plant response rating, Crabgrass [6, 23]: 70
Plant response rating, Crabgrass [6, 24]: 45
Plant response rating, Crabgrass [6, 25]: 85
Plant response rating, Morningglory [7, 22]: 90
Plant response rating, Morningglory [7, 23]: 95
Plant response rating, Morningglory [7, 24]: 90
Plant response rating, Morningglory [7, 25]: 100
Plant response rating, Pigweed [8, 22]: 65
Plant response rating, Pigweed [8, 23]: 95
Plant response rating, Pigweed [8, 24]: 80
Plant response rating, Pigweed [8, 25]: 90
Plant response rating, Velvetleaf [9, 22]: 65
Plant response rating, Velvetleaf [9, 23]: 90
Plant response rating, Velvetleaf [9, 24]: 75
Plant response rating, Velvetleaf [9, 25]: 90
Plant response rating, Barnyardgrass [10, 22]: 55
Plant response rating, Barnyardgrass [10, 23]: 90
Plant response rating, Barnyardgrass [10, 24]: 10
Plant response rating, Barnyardgrass [10, 25]: 80

Nc1nc(-c2ccc(Cl)cc2)nc(C(=O)OCc2ccccc2)c1Cl [Compound 118]
Redstem plant response rating ([11]; 32 g ai/ha): 20
Redstem plant response rating ([11]; 64 g ai/ha): 30
Redstem plant response rating ([11]; 125 g ai/ha): 50
Redstem plant response rating ([11]; 250 g ai/ha): 85
Plant response rating, Redstem ([11]; 16 g ai/ha): 0
Sedge, Umbrella plant response rating ([12]; 32 g ai/ha): 95
Sedge, Umbrella plant response rating ([12]; 64 g ai/ha): 100
Sedge, Umbrella plant response rating ([12]; 125 g ai/ha): 100
Sedge, Umbrella plant response rating ([12]; 250 g ai/ha): 100
Plant response rating, Sedge, Umbrella ([12]; 16 g ai/ha): 85
Flatsedge, Rice plant response rating ([13]; 32 g ai/ha): 95
Flatsedge, Rice plant response rating ([13]; 64 g ai/ha): 95
Flatsedge, Rice plant response rating ([13]; 125 g ai/ha): 95
Flatsedge, Rice plant response rating ([13]; 250 g ai/ha): 100
Plant response rating, Flatsedge, Rice ([13]; 16 g ai/ha): 85
Rice, Water Seeded plant response rating ([14]; 32 g ai/ha): 0
Rice, Water Seeded plant response rating ([14]; 64 g ai/ha): 0
Rice, Water Seeded plant response rating ([14]; 125 g ai/ha): 0
Rice, Water Seeded plant response rating ([14]; 250 g ai/ha): 0
Plant response rating, Rice, Water Seeded ([14]; 16 g ai/ha): 0
Rice, Transplanted plant response rating ([15]; 32 g ai/ha): 0
Rice, Transplanted plant response rating ([15]; 64 g ai/ha): 0
Rice, Transplanted plant response rating ([15]; 125 g ai/ha): 0
Rice, Transplanted plant response rating ([15]; 250 g ai/ha): 0
Plant response rating, Rice, Transplanted ([15]; 16 g ai/ha): 0
Junglerice plant response rating ([16]; 32 g ai/ha): 40
Junglerice plant response rating ([16]; 64 g ai/ha): 45
Junglerice plant response rating ([16]; 125 g ai/ha): 65
Junglerice plant response rating ([16]; 250 g ai/ha): 65
Plant response rating, Junglerice ([16]; 16 g ai/ha): 0
Ducksalad plant response rating ([17]; 32 g ai/ha): 100
Ducksalad plant response rating ([17]; 64 g ai/ha): 100
Ducksalad plant response rating ([17]; 125 g ai/ha): 100
Ducksalad plant response rating ([17]; 250 g ai/ha): 100
Plant response rating, Ducksalad ([17]; 16 g ai/ha): 100
Watergrass, Late plant response rating ([18]; 32 g ai/ha): 0
Watergrass, Late plant response rating ([18]; 64 g ai/ha): 0
Watergrass, Late plant response rating ([18]; 125 g ai/ha): 0
Watergrass, Late plant response rating ([18]; 250 g ai/ha): 0
Plant response rating, Watergrass, Late ([18]; 16 g ai/ha): 0
Watergrass, Early plant response rating ([19]; 32 g ai/ha): 0
Watergrass, Early plant response rating ([19]; 64 g ai/ha): 0
Watergrass, Early plant response rating ([19]; 125 g ai/ha): 0
Watergrass, Early plant response rating ([19]; 250 g ai/ha): 0
Plant response rating, Watergrass, Early ([19]; 16 g ai/ha): 0
Sprangletop, Brdd. plant response rating ([20]; 32 g ai/ha): 0
Sprangletop, Brdd. plant response rating ([20]; 64 g ai/ha): 0
Sprangletop, Brdd. plant response rating ([20]; 125 g ai/ha): 70
Sprangletop, Brdd. plant response rating ([20]; 250 g ai/ha): 85
Plant response rating, Sprangletop, Brdd. ([20]; 16 g ai/ha): 0
Barnyardgrass plant response rating ([21]; 32 g ai/ha): 0
Barnyardgrass plant response rating ([21]; 64 g ai/ha): 0
Barnyardgrass plant response rating ([21]; 125 g ai/ha): 0
Barnyardgrass plant response rating ([21]; 250 g ai/ha): 0
Plant response rating, Barnyardgrass ([21]; 16 g ai/ha): 0
Plant response rating, Foxtail, Giant [5, 22]: 0
Plant response rating, Foxtail, Giant [5, 23]: 15
Plant response rating, Foxtail, Giant [5, 24]: 0
Plant response rating, Foxtail, Giant [5, 25]: 15
Plant response rating, Crabgrass [6, 22]: 10
Plant response rating, Crabgrass [6, 23]: 20
Plant response rating, Crabgrass [6, 24]: 10
Plant response rating, Crabgrass [6, 25]: 25
Plant response rating, Morningglory [7, 22]: 65
Plant response rating, Morningglory [7, 23]: 70
Plant response rating, Morningglory [7, 24]: 0
Plant response rating, Morningglory [7, 25]: 0
Plant response rating, Pigweed [8, 22]: 60
Plant response rating, Pigweed [8, 23]: 75
Plant response rating, Pigweed [8, 24]: 10
Plant response rating, Pigweed [8, 25]: 55
Plant response rating, Velvetleaf [9, 22]: 90
Plant response rating, Velvetleaf [9, 23]: 95
Plant response rating, Velvetleaf [9, 24]: 0
Plant response rating, Velvetleaf [9, 25]: 15
Plant response rating, Barnyardgrass [10, 22]: 0
Plant response rating, Barnyardgrass [10, 23]: 0
Plant response rating, Barnyardgrass [10, 24]: 0
Plant response rating, Barnyardgrass [10, 25]: 10
